The values that follow come from US8552013B2, “Heterocyclic compounds based on N6-substituted adenine, methods of their preparation, their use for preparation of drugs, cosmetic preparations and growth regulators, pharmaceutical preparations, cosmetic preparations and growth regulators containing these compounds” (USTAV Experimentalni Botaniky Akademie Ved Ceske Republiky, priority 2001, dated 2013).

Series [1] concerns T-lymphoblastic leukemia cell line CEM. Kind of series: Calcein AM cytotoxicity, CEM. The format is cell-based, human. A digest of the protocol: (§1)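 Cells in DMEM with 10% FCS, pre-incubated 24 h, then exposed to six 4-fold compound dilutions in duplicate for 72 h at 37 °C, 5% CO2. Viability read by Calcein AM fluorescence after 1 h further incubation.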
The subject of series [2] is breast carcinoma cell line MCF-7. Kind of series: Calcein AM cytotoxicity, MCF7. The format is cell-based, human. Particulars: read-out: IC 50, MCF7. A digest of the protocol: as §1
A further series relates to G-361. Description: Calcein AM cytotoxicity, G-361. The settings on record: read-out: IC 50, G-361. The format is cell-based.
The test system of the next series is B16-F0 melanoma. Description: Calcein AM cytotoxicity, B16-F0. The format is cell-based. Particulars: Mus musculus, B16F0, 72 h, read-out: IC 50, B16-F0. A digest of the protocol: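 Cells pre-incubated 24 hours, then exposed for 72 hours at 37° C. to six 4-fold compound dilutions in duplicate, top well concentration usually 266.7 μM. Viability read by Calcein AM fluorescence after 1 hour; GI50 taken from dose-response curves of survival relative to control wells.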

Series [3] relates to senescent human skin fibroblasts. Description: Actin staining of senescent cells (FITC-Phalloidin). It counts as cell-based. Particulars: after 3 days; meta 40 μM. An excerpt:
Actin staining: The pattern of cytoskeletal actin staining was studied by staining the cells with florescent ligand FITC-labelled Phalloidin, using a fluorescence microscope

For series [4], the system named is human skin fibroblasts. Kind of series: Apoptosis assay in treated skin fibroblasts. The settings on record: 3 days of treatment; ortho 200 μM. It counts as cell-based.
In series [5] the test system is senescent human skin fibroblasts. Description: Morphology of senescent cells. The format is cell-based. The settings on record: for appearance of senescent cells on longer treatment: 14 days, ortho and meta 80 μM and above; for appearance of senescent cells: after 7 days of treatment (para: 7 days and 14 days; meta: low concentrations). The procedure: (§2) All experiments were performed on early and mid passage cultures (about 20 to 40% lifespan completed) of normal human adult skin fibroblast line; designated ASF-2 & Senetek cell line (about 10-90% lifespan completed); designated as SF20. In order to check the effects of test compounds on senescent cells, late passage cells with more than 95% lifespan completed were used. ASF-2 and SF20 cell lines were established from a mammary skin biopsy obtained from a young, non-smoking and healthy […] at the time of breast reduction operation. Normal culture conditions of medium (DMEM) containing antibiotics, 10% foetal calf serum, and incubation at 37° C. with 95% humidity were used. The effects of the test chemicals were determined in the following conditions:
Senescent human skin fibroblasts were treated with various doses of para-topolin to see if this treatment could reverse age-related alterations in their morphology. […] The cells progressively became heterogeneous with large and flattened appearance.

Series [6] has as its system human skin fibroblasts. Description: Cell survival, MTT assay. The format is cell-based. Particulars: 3 days. The procedure:
Cell survival after exposure to various doses was measured with the 3-(4,5 dimethylthiazol-2-yl)-2,5-diphenyltetrazolium bromide (MTT) assay. About 5,000 cells were seeded per well in a 96-well plate 24 h before the experiment. Cells were then treated with various doses of the compound to be tested. The wells were washed in Hank's and new medium was added. After three days, MTT (Sigma, M2128) was added at 0.5 mg/ml in medium. After 4 h, MTT was removed and isopropanol and HCl were added to dissolve the MTT crystals for 12-16 h. The absorbance at 595 nm was measured.

Series [7] deals with human skin fibroblasts. Kind of series: Series of experiments on short-term effects on human skin fibroblasts, conclusion. The settings on record: para at a dose of 40 μM. It counts as cell-based. As for the experimental part: as §2
The experiments were performed to determine the effects of short-term treatment of ortho-topolin, meta-topolin, and para-topolin on cell attachment, survival, growth, apoptosis, actin cytoskeletal pattern, lysosomal activity, proteasomal activity and morphology of human skin fibroblasts in culture.

The next series relates to proteasome. Kind of series: Proteasomal chymotrypsin-like activity in cell extracts of treated cells. The format is cell-based, human. The settings on record: 40, 80 and 200 μM. As for the experimental part: Chymotrypsin-like activity in cell extracts prepared from treated and untreated cells was determined by in vitro degradation of oligopeptides by the proteasome.

Several values for one entry are separate records, joined by “and”; a condition that tells them apart may be missing. Identical values can stand only once. Like-named read-outs stand apart in the source and are kept apart here.

Consider `Fc1ccccc1CNc1ncnc2nc[nH]c12` [6-(2-fluorobenzylamino)purine], for which the IC50 was 136 µM and 98.9 µM in series [1] (72 hours, listed as 2F BAP); 109 µM and 128 µM in series [2] (72 hours, listed as 2F BAP); 106 µM in the series on G-361 (72 hours).
Take `Cc1ccccc1CNc1ncnc2nc[nH]c12` [6-(2-methylbenzylamino)purine]: the IC50 is over 167 µM in [1] (Homo sapiens, 72 h); over 167 µM in [2] (Homo sapiens, MCF7, 72 h); over 167 µM with G-361 (Homo sapiens, G-361, 72 hours).
With `Ic1cccc(CNc2ncnc3nc[nH]c23)c1` [6-(3-iodobenzylamino)purine], the IC50 is 125 µM in series [1] (Homo sapiens, 72 h); 130 µM in series [2] (Homo sapiens, MCF7, 72 h); over 167 µM in the series on G-361 (Homo sapiens, G-361, 72 hours).
As for `COc1cccc(CNc2ncnc3nc[nH]c23)c1` [6-(3-methoxybenzylamino)purine], the IC50 with B16-F0 melanoma was 41.5 µM; in series [2] (72 hours, listed as 3MeO BAP), 150 µM.
For `Cc1ccc(CNc2ncnc3nc[nH]c23)cc1` [6-(4-methylbenzylamino)purine], the IC50 was 72.1 µM in series [1] (Homo sapiens, 72 h); 82.8 µM in series [2] (Homo sapiens, MCF7, 72 h); 160 µM in the series on G-361 (Homo sapiens, G-361, 72 hours).
On to `Oc1cccc(CNc2ncnc3nc[nH]c23)c1` [meta-topolin, 6-(3-hydroxybenzylamino)purine], for which the IC50 in the series on B16-F0 melanoma was 90.6 µM. The “actin staining pattern in senescent cells” value in series [3] was “depolymerised actin filaments to some extent”. Moreover, the apoptosis assay entry with human skin fibroblasts [4] is “cell death at 40 μM and above”. Besides, the “effects on morphology of senescent cells” value in series [5] (200 μM and above, within 7 days) is reported as “some negative effects”. In addition, in [5], the “appearance of senescent cells on longer treatment” value was “unhealthy and sick”; the “appearance of senescent cells” value is on record as “no significant differences”. In addition, the “cells that did survive treatment” value in the series with human skin fibroblasts [6] worked out at 60%. In addition, the cells killed result in the series with human skin fibroblasts [6] (between 0.01 and 1 μM) is listed as “about 40%”. Also, the “conclusion on short-term effects on human skin fibroblasts” value with human skin fibroblasts [7] is listed as “little or no beneficial effects”. For the same compound, the “proteasomal activity (chymotrypsin-like), removal of oxidized and abnormal proteins” value with proteasome is “failed to show such an effect”.
Consider `Oc1ccccc1CNc1ncnc2nc[nH]c12` [ortho-topolin, 6-(2-hydroxybenzylamino)purine], for which, in the series with B16-F0 melanoma, the IC50 is 150 µM. Moreover, the “actin staining pattern in senescent cells” value in series [3] is “no obvious differences”. Moreover, in the series with human skin fibroblasts [4], the apoptosis assay result is on record as “some induction of apoptosis”. Further, in series [5], the “appearance of senescent cells on longer treatment” value was “unhealthy and sick”; the “appearance of senescent cells” value is given as “no significant differences”. The “reduction in cell survival” value with human skin fibroblasts [6] (200-500 μM) was 10-20%. For the same compound, the “dose until which not cytotoxic / no toxic effect on survival (MTT)” value with human skin fibroblasts [6] (range 0.01-500 μM) is 100 µM. Besides, the “conclusion on short-term effects on human skin fibroblasts” value in the series with human skin fibroblasts [7] was “little or no beneficial effects”. The “proteasomal activity (chymotrypsin-like), removal of oxidized and abnormal proteins” value in the series with proteasome was “failed to show such an effect”.
